Measurements taken from ChEMBL document CHEMBL1201862, “PubChem BioAssay data set” (2004).
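Briefly, cells in 96-well plates were exposed to five compound concentrations for 48 h, and endpoints were estimated by linear interpolation. GI50 marks 50% less growth.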 Activity calls are given as the source filed them. Cut-off read from the data, not from the text of the source: active = GI50 up to about 1.1 µM and inactive = higher.

Key:
Test in all cases: DTP human tumour cell line panel, 48 h
Malme-3M = system: Malme-3M
IGROV-1 = system: IGROV-1
HCC 2998 = system: HCC 2998
HCT-116 = system: HCT-116
OVCAR-5 = system: OVCAR-5
RPMI-8226 = system: RPMI-8226
SK-MEL-2 = system: SK-MEL-2
SR = system: SR
MDA-N = system: MDA-N
SF-295 = system: SF-295
NCI-H226 = system: NCI-H226
ACHN = system: ACHN
HT-29 = system: HT-29
HL-60 = system: HL-60
MOLT-4 = system: MOLT-4
COLO 205 = system: COLO 205
UACC-257 = system: UACC-257
HOP-92 = system: HOP-92
UO-31 = system: UO-31
DU-145 = system: DU-145

## CC1(C)OCC(C2OC(=O)C(OCc3ccccc3)=C2OCc2ccccc2)O1 (stereo not given)
Malme-3M
  GI50: 29.9 µM (inactive)
IGROV-1
  GI50: 64.3 µM (inactive)
HCC 2998
  GI50: 36.8 µM (inactive)
HCT-116
  GI50: 31.3 µM (inactive)
OVCAR-5
  GI50: 60.1 µM (inactive)
RPMI-8226
  GI50: 24 µM (inactive)
SK-MEL-2
  GI50: 23.1 µM (inactive)
SR
  GI50: 28.4 µM (inactive)
MDA-N
  GI50: 38 µM (inactive)
SF-295
  GI50: 34 µM (inactive)
NCI-H226
  GI50: 32.7 µM (inactive)
ACHN
  GI50: 31.5 µM (inactive)
HT-29
  GI50: 51.4 µM (inactive)
HL-60
  GI50: 22.9 µM (inactive)
MOLT-4
  GI50: 23 µM (inactive)
COLO 205
  GI50: 22.2 µM (inactive)
UACC-257
  GI50: 29.9 µM (inactive)
HOP-92
  GI50: 23 µM (inactive)
UO-31
  GI50: 37.1 µM (inactive)
DU-145
  GI50: 81.1 µM (inactive)

## Cc1cnc2c(c1)C(=O)C1=C(C2=O)C2OC(=O)CC2OC1(C)C (stereo not given)
Malme-3M
  GI50: 0.0736 µM (active)
IGROV-1
  GI50: 0.179 µM (active)
HCC 2998
  GI50: 0.248 µM (active)
HCT-116
  GI50: 0.0681 µM (active)
OVCAR-5
  GI50: 0.301 µM (active)
RPMI-8226
  GI50: 0.188 µM (active)
SK-MEL-2
  GI50: 0.964 µM (active)
SR
  GI50: 0.0389 µM (active)
MDA-N
  GI50: 0.281 µM (active)
SF-295
  GI50: 1.25 µM (inactive)
NCI-H226
  GI50: 0.979 µM (active)
ACHN
  GI50: 0.107 µM (active)
HT-29
  GI50: 0.0588 µM (active)
HL-60
  GI50: 0.0148 µM (active)
MOLT-4
  GI50: 0.0776 µM (active)
COLO 205
  GI50: 0.0462 µM (active)
UACC-257
  GI50: 0.198 µM (active)
HOP-92
  GI50: 0.121 µM (active)
UO-31
  GI50: 0.458 µM (active)
DU-145
  GI50: 1.64 µM (inactive)

## CC(=O)c1c(C)cn(S(=O)(=O)NC(=O)Nc2nncs2)c1C
Malme-3M
  GI50: > 100 µM (inactive)
IGROV-1
  GI50: > 100 µM (inactive)
HCC 2998
  GI50: > 100 µM (inactive)
HCT-116
  GI50: > 100 µM (inactive)
OVCAR-5
  GI50: > 100 µM (inactive)
RPMI-8226
  GI50: > 100 µM (inactive)
SK-MEL-2
  GI50: > 100 µM (inactive)
SR
  GI50: > 100 µM (inactive)
MDA-N
  GI50: > 100 µM (inactive)
SF-295
  GI50: > 100 µM (inactive)
NCI-H226
  GI50: 49.2 µM (inactive)
ACHN
  GI50: > 100 µM (inactive)
HT-29
  GI50: > 100 µM (inactive)
HL-60
  GI50: > 100 µM (inactive)
MOLT-4
  GI50: > 100 µM (inactive)
COLO 205
  GI50: > 100 µM (inactive)
UACC-257
  GI50: > 100 µM (inactive)
HOP-92
  GI50: > 100 µM (inactive)
UO-31
  GI50: 68.9 µM (inactive)
DU-145
  GI50: > 100 µM (inactive)

## CC(C)(CCc1nc2ccccc2[nH]1)C(=O)O
Malme-3M
  GI50: > 100 µM (inactive)
IGROV-1
  GI50: > 100 µM (inactive)
HCC 2998
  GI50: > 100 µM (inactive)
HCT-116
  GI50: > 100 µM (inactive)
OVCAR-5
  GI50: > 100 µM (inactive)
RPMI-8226
  GI50: > 100 µM (inactive)
SK-MEL-2
  GI50: > 100 µM (inactive)
SR
  GI50: > 100 µM (inactive)
MDA-N
  GI50: > 100 µM (inactive)
SF-295
  GI50: > 100 µM (inactive)
NCI-H226
  GI50: > 100 µM (inactive)
ACHN
  GI50: > 100 µM (inactive)
HT-29
  GI50: > 100 µM (inactive)
HL-60
  GI50: > 100 µM (inactive)
MOLT-4
  GI50: > 100 µM (inactive)
COLO 205
  GI50: > 100 µM (inactive)
UACC-257
  GI50: > 100 µM (inactive)
HOP-92
  GI50: > 100 µM (inactive)
UO-31
  GI50: > 100 µM (inactive)
DU-145
  GI50: > 100 µM (inactive)

## COc1ccc(NC(=S)N/N=C(\c2ccccc2)c2ccccn2)cc1
Malme-3M
  GI50: 0.172 µM (active)
IGROV-1
  GI50: < 0.01 µM (active)
HCC 2998
  GI50: 2.42 µM (inactive)
HCT-116
  GI50: < 0.01 µM (active)
OVCAR-5
  GI50: 0.0241 µM (active)
RPMI-8226
  GI50: < 0.01 µM (active)
SK-MEL-2
  GI50: 2.5 µM (inactive)
SR
  GI50: < 0.01 µM (active)
MDA-N
  GI50: 0.263 µM (active)
SF-295
  GI50: 0.121 µM (active)
NCI-H226
  GI50: 0.0753 µM (active)
ACHN
  GI50: < 0.027 µM (active)
HT-29
  GI50: < 0.0118 µM (active)
HL-60
  GI50: < 0.01 µM (active)
MOLT-4
  GI50: < 0.01 µM (active)
COLO 205
  GI50: < 0.01 µM (active)
UACC-257
  GI50: < 0.01 µM (active)
HOP-92
  GI50: 0.224 µM (active)
UO-31
  GI50: 0.132 µM (active)
DU-145
  GI50: 0.568 µM (active)

## O=C(NCCc1ccccc1)c1cc(/C=C/c2cc(O)ccc2O)ccc1O
Malme-3M
  GI50: 2.22 µM (inactive)
IGROV-1
  GI50: 3.03 µM (inactive)
HCC 2998
  GI50: 10.1 µM (inactive)
HCT-116
  GI50: 1.81 µM (inactive)
OVCAR-5
  GI50: 8.69 µM (inactive)
RPMI-8226
  GI50: 1.82 µM (inactive)
SK-MEL-2
  GI50: 3.57 µM (inactive)
SR
  GI50: 3.01 µM (inactive)
MDA-N
  GI50: 2.96 µM (inactive)
SF-295
  GI50: 15.9 µM (inactive)
NCI-H226
  GI50: 9.66 µM (inactive)
ACHN
  GI50: 2.2 µM (inactive)
HT-29
  GI50: 18.3 µM (inactive)
HL-60
  GI50: 2.12 µM (inactive)
MOLT-4
  GI50: 2.52 µM (inactive)
COLO 205
  GI50: 5.61 µM (inactive)
UACC-257
  GI50: 2.64 µM (inactive)
HOP-92
  GI50: 1.87 µM (inactive)
UO-31
  GI50: 1.7 µM (inactive)
DU-145
  GI50: 8.59 µM (inactive)

## C/C(=N/NC(=S)Nc1cccc(C)c1)c1ccccn1
Malme-3M
  GI50: 0.319 µM (active)
IGROV-1
  GI50: < 0.01 µM (active)
HCC 2998
  GI50: 1.91 µM (inactive)
HCT-116
  GI50: < 0.01 µM (active)
OVCAR-5
  GI50: 0.0392 µM (active)
RPMI-8226
  GI50: < 0.01 µM (active)
SK-MEL-2
  GI50: 1.68 µM (inactive)
SR
  GI50: < 0.01 µM (active)
MDA-N
  GI50: 1.35 µM (inactive)
SF-295
  GI50: 0.296 µM (active)
NCI-H226
  GI50: 0.0582 µM (active)
ACHN
  GI50: < 0.0481 µM (active)
HT-29
  GI50: < 0.01 µM (active)
HL-60
  GI50: < 0.01 µM (active)
MOLT-4
  GI50: < 0.01 µM (active)
COLO 205
  GI50: < 0.01 µM (active)
UACC-257
  GI50: < 0.01 µM (active)
HOP-92
  GI50: 1.17 µM (inactive)
UO-31
  GI50: 0.285 µM (active)
DU-145
  GI50: 2.19 µM (inactive)

## CC(=O)O[C@H]1CC(C)(C)C(=C=C/C(C)=C/C=C/C=C/C=C(C)/C=C2C=C(/C=C/[C@@]34O[C@]3(C)C[C@@H](O)CC4(C)C)C(=O)O/2)[C@](C)(O)C1
Malme-3M
  GI50: 16.7 µM (inactive)
IGROV-1
  GI50: 2.88 µM (inactive)
HCC 2998
  GI50: 20.7 µM (inactive)
HCT-116
  GI50: 5.33 µM (inactive)
OVCAR-5
  GI50: 19.1 µM (inactive)
RPMI-8226
  GI50: 4.38 µM (inactive)
SK-MEL-2
  GI50: 3.31 µM (inactive)
SR
  GI50: 6.76 µM (inactive)
MDA-N
  GI50: 12.7 µM (inactive)
SF-295
  GI50: 13.5 µM (inactive)
NCI-H226
  GI50: 1.62 µM (inactive)
ACHN
  GI50: 19.3 µM (inactive)
HT-29
  GI50: 21.2 µM (inactive)
HL-60
  GI50: 1.78 µM (inactive)
MOLT-4
  GI50: 3.85 µM (inactive)
COLO 205
  GI50: 19.6 µM (inactive)
UACC-257
  GI50: 12.8 µM (inactive)
HOP-92
  GI50: 12.6 µM (inactive)
UO-31
  GI50: 15.8 µM (inactive)
DU-145
  GI50: 33.2 µM (inactive)
